How the values were obtained:
Format in all cases: in vivo
high fat diet (HFD) mice [1] = assay: Serum triglyceride (TG) level by commercial kit; details: after 16 weeks of gavage
Method: (§1) Mice were divided into five groups: one group was normal diet mice as ND control group; one group of high fat diet (HFD) mice were gavaged with no-active-ingredients water as HFD control group, one group of HFD mice were treated with BAIBA (65 mg/kg/day) alone by gavage as HFD+BAIBA group, one group of HFD mice were treated with GP (5.2 mg/kg/day) alone by gavage as HFD+GP group, and one group of HFD mice were treated with BAIBA (65 mg/kg/day) and GP (5.2 mg/kg/day) combination by gavage as HFD+BAIBA+GP group, all for 16 weeks.
(§2) After the mice were killed, the serum was extracted by centrifugation, and the levels of triglyceride (TG) and total cholesterol (TC) in mice were measured by using commercial kits according to the instructions and recorded.

high fat diet (HFD) mice [2] = assay: Insulin tolerance test (ITT); details: 8th week
Method: as §1
(§3) At the 8th week after the initial experiment, oral glucose tolerance test (OGTT) and insulin tolerance test (ITT) were performed on mice. OGTT is as follows: Blood from tail tip of mice was taken to detect blood glucose, and glucose (1.5 g/kg) was given by gavage after overnight fasting, and blood glucose was monitored with a blood glucose meter before administration and 15, 30, 60, 90 and 120 minutes after administration. ITT is as follows: Insulin (0.75 U/kg) was given by intraperitoneal injection on an empty stomach, and blood glucose was monitored with a blood glucose meter before administration and 15, 30, 60, 90 and 120 minutes after administration.
As shown in Table 2 and FIG. 3B, after 15 minutes, the blood glucose level of mice in HFD control group decreased greatly, and the blood glucose level before and after the end of insulin half-life was higher than that in other groups. […] It can be seen that the combination of BAIBA and GP can reduce the insulin resistance of mice, that is, improve the insulin sensitivity.

high fat diet (HFD) mice [3] = assay: Oral glucose tolerance test (OGTT); details: 8th week
Method: as §1, §3

high fat diet (HFD) mice [4] = assay: Body weight of high fat diet mice after 16 weeks of treatment
Method: as §1
At the beginning of treatment (baseline), the body weights of the five groups of mice were the same.

high fat diet (HFD) mice [5] = assay: Serum leptin level by ELISA kit; details: after 16 weeks of gavage
Method: as §1
The serum of mice was centrifuged, and the level of leptin in serum was determined by ELISA kit. According to the concentration value and light absorption value of leptin, the logarithmic value was taken as a standard curve, and the concentration value of leptin was converted according to the standard curve.

high fat diet (HFD) mice [6] = assay: Body fat mass of high fat diet mice after 16 weeks of treatment
Method: as §1
Adipose tissue was collected, fixed with 10% formalin, embedded in paraffin, and dehydrated by graded alcohol. Tissue sections with a thickness of 5 μm were prepared, stained with hematoxylin-eosin (H&E) and observed under an optical microscope with a magnification of 200 times. The body fat mass of each group of mice was measured and recorded.

high fat diet (HFD) mice [7] = assay: Serum total cholesterol (TC) level by commercial kit; details: after 16 weeks of gavage
Method: as §1, §2

[8] = gavage, BAIBA 65 mg/kg/day and/or GP 5.2 mg/kg/day, after 16 weeks
[9] = versus HFD control, after 16 weeks of gavage

SMILES: CC(CN)C(=O)O (stereo not drawn) [BAIBA, β-aminoisobutyric acid]
- triglyceride (TG) level (high fat diet (HFD) mice [1]): 98.45 mg/dL
- blood glucose level in ITT, 15 min (high fat diet (HFD) mice [2]; 15 min after insulin 0.75 U/kg intraperitoneal): 105.23 mg/dL
- blood glucose level in ITT, 30 min (high fat diet (HFD) mice [2]; 30 min after insulin 0.75 U/kg intraperitoneal): 101.45 mg/dL
- blood glucose level in ITT, 60 min (high fat diet (HFD) mice [2]; 60 min after insulin 0.75 U/kg intraperitoneal): 90.45 mg/dL
- blood glucose level in ITT, 90 min (high fat diet (HFD) mice [2]; 90 min after insulin 0.75 U/kg intraperitoneal): 95.24 mg/dL
- blood glucose level in ITT, 120 min (high fat diet (HFD) mice [2]; 120 min after insulin 0.75 U/kg intraperitoneal): 92.56 mg/dL
- blood glucose level in ITT compared with other groups, in words (high fat diet (HFD) mice [2]; across time points): higher than that in HFD control group at each time point
- blood glucose level in ITT, pre-dose (high fat diet (HFD) mice [2]; empty stomach, before insulin 0.75 U/kg intraperitoneal): 140.4 mg/dL
- blood glucose level in OGTT, 15 min (high fat diet (HFD) mice [3]; 15 min after glucose 1.5 g/kg by gavage): 281.91 mg/dL
- blood glucose level in OGTT, 30 min (high fat diet (HFD) mice [3]; 30 min after glucose 1.5 g/kg by gavage): 352.74 mg/dL
- blood glucose level in OGTT, 60 min (high fat diet (HFD) mice [3]; 60 min after glucose 1.5 g/kg by gavage): 411.98 mg/dL
- blood glucose level in OGTT, 90 min (high fat diet (HFD) mice [3]; 90 min after glucose 1.5 g/kg by gavage): 253.21 mg/dL
- blood glucose level in OGTT, 120 min (high fat diet (HFD) mice [3]; 120 min after glucose 1.5 g/kg by gavage): 192.99 mg/dL
- blood glucose level in OGTT compared with other groups, in words (high fat diet (HFD) mice [3]; across time points): lower than that in HFD control group at each time point
- blood glucose level in OGTT, pre-dose (high fat diet (HFD) mice [3]; overnight fasting, before glucose 1.5 g/kg by gavage): 199.85 mg/dL
- body weight (high fat diet (HFD) mice [4]; [8]): 47.8 g
- body weight reduced by (high fat diet (HFD) mice [4]; [9]): 2.84%
- leptin level (high fat diet (HFD) mice [5]): 278.12 pg/mL
- body fat mass (high fat diet (HFD) mice [6]; [8]): 5.38 g
- body fat mass reduced by (high fat diet (HFD) mice [6]; [9]): 13.78%
- total cholesterol (TC) level (high fat diet (HFD) mice [7]): 220.65 mg/dL
